{
  "source": "paper PMC11477294",
  "about": "“In Vitro Profiling of the Antiviral Peptide TAT-I24” (International Journal of Molecular Sciences, 2024)",
  "key": {"[1]": {"target": "dsDNA (pcDNA3.1 (+) plasmid)", "experiment": "DNA binding assay (SYBR Gold fluorescence reduction)", "conditions": "reduction of fluorescence of SYBR Gold bound to pcDNA3.1 (+) plasmid (100 ng); non-linear regression; n = 8", "protocol": "DNA-binding of the peptides was analyzed using an assay based on the reduction of the fluorescence of DNA-bound SYBR^TM Gold dye in the presence of peptide. […] The selectivity index (SI), that is, the ratio between CC50 and IC50, was calculated for all peptides tested in HEK293 cells, except for C22del and C22del_cyc, for which the CC50 could not be calculated from the results of the cell viability assay (Table 1, Supplementary Figure S1).\nDNA binding was detected using an assay based on reduction of fluorescence emitted by SYBR^TM Gold (ThermoFisher, Darmstadt, Germany) bound to dsDNA in the presence of peptides using the pcDNA3.1 (+) plasmid (100 ng), as described previously."}, "[2]": {"test_system": "MCMV strain delm157-luc rep", "assay_type": "cell-based, mouse cytomegalovirus", "conditions": "luciferase reporter gene expression in NIH/3T3 cells infected with replication-competent MCMV, MOI 0.5, 72 h post-infection; 1:3 dilution series; non-linear regression; n = 9", "protocol": "NIH/3T3 cells were seeded at a density of 2 × 10^4 cells/100 µL per well in a 96-well plate (Sarstedt, Germany) and allowed to attach overnight. On the next day, cells were treated with a 1:3 dilutions series of peptides and, without further pre-incubation, subsequently infected with the MCMV strain delm157-luc rep. The MCMV stock was prepared and quantified as previously described. The virus (MOI 0.5 for luc assays; for other assays, see the specific descriptions) was adsorbed to cells with the aid of centrifugal enhancement twice at 800× g for 15 min at room temperature and incubated at 37 °C for the indicated times. For the luciferase assays, the infected cells were lysed 72 h post-infection using 20 µL Cell Culture Lysis Reagent (Promega, Mannheim, Germany). From the lysates, 10 µL was transferred to white 96-well plates, and luciferase was recorded using a Luciferase Assay System and a GloMax®-Multi Detection System (Promega, Mannheim, Germany)."}, "[3]": {"experiment": "Oligomerization/aggregation by SDS-PAGE with Coomassie stain", "assay_type": "physicochemical", "conditions": "48 h at 37 °C in PBS or PBS with 10% FCS", "protocol": "For determination of peptide stability, 20 µg peptide was added to 50 µL PBS or PBS with 10% FCS and incubated for 48 h at 37 °C or stored at −20 °C. For non-reducing conditions, 4 µL peptide solution was mixed with 1 µL H2O and 5 µL Novex™ Tricine SDS Sample Buffer (2×) (ThermoFisher, Darmstadt, Germany). For reducing conditions, 4 µL peptide solution was mixed with 1 µL NuPAGE™ Sample Reducing Agent (10×) (Invitrogen by Thermo Fisher Scientific) and 5 µL Novex™ Tricine SDS Sample Buffer (2×). Samples were then heated to 85 °C for 10 min. A total of 10 µL was then loaded onto each well of 10–20% Novex™ Tricine, 1.0 mm, Mini Protein Gels (Invitrogen/ThermoFisher, Waltham, MA, USA) and run in 1× Novex™ Tricine SDS Running Buffer (Invitrogen/ThermoFisher, Waltham, MA, USA) for 90 min at 100 V. After electrophoresis, gels were fixed with 40% methanol and 10% acetic acid followed by staining with 0.1% Coomassie brilliant blue R250 (Sigma-Aldrich, Schnelldorf, Germany) in 40% methanol and 10% acetic acid for one hour and destaining using fixing solution."}, "[4]": {"experiment": "Peptide stability in PBS or PBS with 10% FCS, read out as antiviral activity", "assay_type": "in vitro ADME", "conditions": "48 h at 37 °C versus −20 °C, two independent incubations in duplicate", "protocol": "(§1) A baculovirus expressing luciferase under the control of the CMV promoter has been described previously. HEK293 cells were seeded at a density of 2 × 10^4 cells/100 µL per well in 96-well plates (Sarstedt, Germany). On the next day, cells were treated with a 1:3 dilution series of peptides and, without further pre-incubation, subsequently infected with baculovirus–luc at a multiplicity of infection (MOI) of 5. Cells were lysed 24 h post-infection using 20 µL Cell Culture Lysis Reagent (Promega, Mannheim, Germany). From the lysates, 10 µL was transferred to white 96-well plates, and luciferase was recorded using a luciferase assay system and a GloMax®-Multi Detection System (Promega, Mannheim, Germany).\nNIH/3T3 cells were seeded at a density of 2 × 10^4 cells/100 µL per well in a 96-well plate (Sarstedt, Germany) and allowed to attach overnight. On the next day, cells were treated with a 1:3 dilutions series of peptides and, without further pre-incubation, subsequently infected with the MCMV strain delm157-luc rep. The MCMV stock was prepared and quantified as previously described. […] From the lysates, 10 µL was transferred to white 96-well plates, and luciferase was recorded using a Luciferase Assay System and a GloMax®-Multi Detection System (Promega, Mannheim, Germany). […]"}, "DiO-labeled MCMV": {"test_system": "DiO-labeled MCMV", "experiment": "Entry of DiO-labeled MCMV (microscopy)", "assay_type": "cell-based, mouse cytomegalovirus", "conditions": "10 µM peptide, NIH/3T3 cells, 120 min post-infection, MOI approximately 5", "protocol": "DiO labeling was performed by incubation of MCMV (2 × 10^7 pfu) with 5 µL of Vybrant™ DiO Cell-Labeling Solution in 300 µL cell culture medium supplemented with 10% FCS for 20 min at 37 °C. After that, the virus was precipitated overnight at 4 °C by addition of 600 µL autoclaved solution of polyethylene glycol/sodium chloride (30% (w/v) PEG-8000 (Sigma Aldrich, Schnelldorf, Germany), 10.5% NaCl (w/v) in PBS, followed by centrifugation on the next day for one hour at 1600× g at 4 °C. Supernatants were discarded, and the precipitated virus was resuspended in 500 µL cell culture medium supplemented with 10% FCS, aliquoted and stored at −80 °C.\nNIH/3T3 cells were seeded at a density of 2 × 10^4 cells/250 µL per well in ibiTreat 8-well chambers (ibidi, Germany) and allowed to attach overnight at 37 °C. On the next day, cells were treated with peptides and infected with DiO-labeled MCMV corresponding to an MOI of approximately 5 with the aid of centrifugal enhancement, twice at 800× g for 15 min. After 2 h of incubation, cells were washed twice with PBS and fixed with 5% formaldehyde for 1 h at room temperature. Then, cells were stained with DAPI for 15 min, as described above. […]"}, "[5]": {"test_system": "baculovirus expressing luciferase under the control of the CMV promoter", "assay_type": "cell-based", "conditions": "luciferase reporter gene expression in HEK293 cells transduced with baculovirus-luc, MOI 5, 24 h post-infection; 1:3 peptide dilution series; non-linear regression; n = 8", "protocol": "as §1"}},
  "note": "Where a SMILES comes first, the peptide text is derived from it.",
  "data": [
    {"smiles": "CC(C)C[C@H](NC(=O)[C@H](CS)NC(=O)[C@H](CCC(N)=O)NC(=O)[C@@H]1CCCN1C(=O)[C@@H]1CCCN1C(=O)[C@H](CCCNC(=N)N)NC(=O)[C@H](CCCNC(=N)N)NC(=O)[C@H](CCCNC(=N)N)NC(=O)[C@H](CCC(N)=O)NC(=O)[C@H](CCCNC(=N)N)NC(=O)[C@H](CCCNC(=N)N)NC(=O)[C@H](CCCCN)NC(=O)[C@H](CCCCN)NC(=O)[C@H](CCCNC(=N)N)NC(=O)CN)C(=O)N[C@@H](C)C(=O)N[C@@H](Cc1ccccc1)C(=O)N[C@@H](Cc1ccc(O)cc1)C(=O)N[C@@H](C)C(=O)N[C@@H](CS)C(=O)N[C@@H](Cc1ccccc1)C(=O)N[C@@H](CS)C(=O)O", "note": "[TAT-I24] (H-GRKKRRQRRRPPQCLAFYACFC-OH)", "values": [
      {"measurement": "IC50", "setting": "[1]", "value": 1010, "unit": "nM"},
      {"measurement": "IC50", "setting": "[2]", "value": 910, "unit": "nM"},
      {"measurement": "oligomer formation, SDS-PAGE under reducing conditions", "setting": "[3]; 10–20% Tricine gel, Coomassie Brilliant Blue stain", "value": "additional weak higher molecular weight smear around 45 kDa"},
      {"measurement": "oligomer formation, SDS-PAGE under non-reducing conditions", "setting": "[3]; SDS loading buffer without reducing agent, Coomassie stain", "value": "only faint bands of monomers"},
      {"measurement": "antiviral activity after incubation of peptide with serum (serum stability)", "setting": "[4]; 20 µg peptide in 50 µL PBS with 10% FCS, read-out baculovirus/HEK293 (24 h) and MCMV/NIH/3T3 (72 h) luciferase", "value": "slight reduction in antiviral activity"},
      {"measurement": "antiviral activity after incubation of peptide without serum", "setting": "[4]; 20 µg peptide in 50 µL PBS, read-out baculovirus/HEK293 and MCMV/NIH/3T3 luciferase", "value": "curve shaping for both peptides was altered"},
      {"measurement": "organization of fluorescent signal of DiO-labeled MCMV in cells", "setting": "DiO-labeled MCMV", "value": "less perinuclear organization and was more dispersed in the whole cytoplasm"},
      {"measurement": "IC50", "setting": "[5]", "value": 50, "unit": "nM"}
    ]}
  ]
}
